Laboratory results: patent publication US5591613A, “Method for the preparation of D-arginine and L-ornithine” (Degussa Aktiengesellschaft, priority 1990, dated 1997)

How the values were obtained:
[1] = system: ox liver arginase; details: literature; cited from earlier work
[2] = system: arginase; details: literature value; cited from earlier work
[3] = molecular target: T1, Calf liver arginase (Bos taurus, UniProt Q2KJ64); assay: Arginase-catalysed hydrolysis of L-Arg to L-Orn, initial rates in batch, with and without inhibitors; format: biochemical; details: for kind of inhibition / substrate behaviour: from conversion-time profiles (FIG. 3); for conversion (%) after 1.0 hrs / conversion (%) after 1.5 hrs / conversion (%) after 2.0 hrs / ro, arginase: 0.5 M L-Arg; for conversion (%) after 1.0 hrs / conversion (%) after 1.5 hrs / conversion (%) after 2.0 hrs / ro, arginase / Vo Arginase / conversion after 2 hrs.: starting pH 11.5; for ro, arginase %: relative to 100:0; for Vo Arginase / conversion after 2 hrs.: 0.75 M L-Arg
T1 construct: purchased Boehringer Mannheim (Mannheim, F.R.G.)
T1 sequence (Q2KJ64 1-322): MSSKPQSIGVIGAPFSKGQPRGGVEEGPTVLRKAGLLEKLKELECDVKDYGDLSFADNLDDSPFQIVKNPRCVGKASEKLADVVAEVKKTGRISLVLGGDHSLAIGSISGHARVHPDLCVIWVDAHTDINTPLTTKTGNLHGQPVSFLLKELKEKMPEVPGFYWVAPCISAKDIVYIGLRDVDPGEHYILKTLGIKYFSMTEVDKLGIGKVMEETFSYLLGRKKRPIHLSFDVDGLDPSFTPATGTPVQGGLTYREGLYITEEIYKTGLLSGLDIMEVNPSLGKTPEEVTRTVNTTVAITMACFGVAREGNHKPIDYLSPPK
Method: In further experiments, the materials used were: Calf liver arginase (activity 110 U/mg) which was obtained from Boehringer Mannheim (Mannheim, F.R.G.). Amino acids were from Rexim (Ham, France). MnSO4, MnO2, and ascorbic acid were from E. Merck (Darmstadt, F.R.G.).
(§1) Batch conditions used were: Starting pH value, except for the activity-pH curve, was either 11.5, the natural value for L-Arg in water, or 9.5, adjusted from pH 11.5 with conc. HCl. The temperature was 25° C. unless otherwise noted. Typical concentrations of L-Arg were 0.75M. Unless otherwise mentioned, [Mn2^+ ]=5-10^-4 M. Reaction progress was followed by HPLC (amino column, mobile phase: phosphate buffer (pH 6.4)/acetonitrile).
Kinetic data was obtained as follows: Initial rate data were analyzed by a non-linear regression method (Marquardt routine) with the program OPTI (U. Giesecke, KFA J ulich).
A linear slope of 1/[S] vs. [I] plot distinguishes a purely competitive inhibition mechanism from a partially competitive one. Simultaneously, the apparent and the intrinsic KM -value are proportional to [I] according to equation (5) from which the inhibition constant KI can be calculated
Since the runs have been conducted at [LArg]=50 mM=2·Km,intr,Vo =Vmax ·2·KM,intr /(KM,intr (3+[I]/KI))=Vmax ·2/(3+[I]/KI). At [I]=KI, Vo =Vmax 2/(3+1)=Vmax /2. So, KI can be calcuated with sufficient accuracy from a Vo vs. [I] plot such as FIG. 4. […] In this work, however, maximum product concentration was sought for optimal space-time-yield and work-up efficiency.

[4] = molecular target: T1, Calf liver arginase; assay: Activation of arginase by Mn2+ ions; format: biochemical
Method: as §1
Activation by Mn^2+ ions and MnO2 precipitation: An optimum concentration of the activator Mn^2+ of 0.5 mM was found. At the prevalent alkaline pH values, MnO2 from the oxidation of Mn^2+ precipitates. To suppress oxidation, ascorbic acid was added as an reducing agent.

Compound: N=C(N)NCCC[C@H](N)C(=O)O [L-Arg, L-arginine]
- Km [1]: 29 mM
- Km [2]: 4 mM
- kind of inhibition / substrate behaviour [3]: not a substrate inhibitor
- Vmax ([3]; nonlinear regression of initial rate data with L-Arg): 459 Units (=μmol/(min·mg))

Compound: N=C(N)NCCC[C@@H](N)C(=O)O [D-Arg, D-arginine]
- conversion (%) after 1.0 hrs ([3]; Ratio L/D-Arg 50:50 (DL)): 15.6%
- conversion (%) after 1.5 hrs ([3]; Ratio L/D-Arg 50:50 (DL)): 19.4%
- conversion (%) after 2.0 hrs ([3]; Ratio L/D-Arg 50:50 (DL)): 26.4%
- ro, arginase ([3]; Ratio L/D-Arg 50:50 (DL)): 0.097 mol/L/h
- ro, arginase % ([3]; Ratio L/D-Arg 50:50 (DL)): 59.5%
- conversion (%) after 1.0 hrs ([3]; Ratio L/D-Arg 60:40): 22.2%
- conversion (%) after 1.5 hrs ([3]; Ratio L/D-Arg 60:40): 32.2%
- conversion (%) after 2.0 hrs ([3]; Ratio L/D-Arg 60:40): 35.4%
- ro, arginase ([3]; Ratio L/D-Arg 60:40): 0.1376 mol/L/h
- ro, arginase % ([3]; Ratio L/D-Arg 60:40): 73.6%
- conversion (%) after 1.0 hrs ([3]; Ratio L/D-Arg 70:30): 24.6%
- conversion (%) after 1.5 hrs ([3]; Ratio L/D-Arg 70:30): 31.8%
- conversion (%) after 2.0 hrs ([3]; Ratio L/D-Arg 70:30): 35.4%
- ro, arginase ([3]; Ratio L/D-Arg 70:30): 0.1380 mol/L/h
- ro, arginase % ([3]; Ratio L/D-Arg 70:30): 73.8%
- conversion (%) after 1.0 hrs ([3]; Ratio L/D-Arg 85:15): 25.1%
- conversion (%) after 1.5 hrs ([3]; Ratio L/D-Arg 85:15): 34.8%
- conversion (%) after 2.0 hrs ([3]; Ratio L/D-Arg 85:15): 40.2%
- ro, arginase ([3]; Ratio L/D-Arg 85:15): 0.150 mol/L/h
- ro, arginase % ([3]; Ratio L/D-Arg 85:15): 80.3%
- kind of inhibition / substrate behaviour [3]: neither a substrate of arginase nor a non-competitive inhibitor

Compound: NCCC[C@H](N)C(=O)O [L-Orn, L-ornithine]
- Ki [2]: 1.3 mM

Compound: [Mn+2] [Mn^2+]
- optimum concentration of the activator [4]: 0.5 mM

Compound: NCCCC[C@H](N)C(=O)O [L-Lys, reference compound]
- Ki [2]: 1.3 mM
- Vo Arginase ([3]; inhibitor 0.1 M): 0.129 mol/L/h
- conversion after 2 hrs. ([3]; inhibitor 0.1 M): 34.3%
- Vo Arginase ([3]; inhibitor 0.2 M): 0.120 mol/L/h
- conversion after 2 hrs. ([3]; inhibitor 0.2 M): 32.1%
- Vo Arginase ([3]; inhibitor 0.4 M): 0.086 mol/L/h
- conversion after 2 hrs. ([3]; inhibitor 0.4 M): 22.9%
- Vo Arginase ([3]; inhibitor 0.5 M): 0.075 mol/L/h
- conversion after 2 hrs. ([3]; inhibitor 0.5 M): 19.9%
- Vo Arginase ([3]; inhibitor 0.75 M): 0.066 mol/L/h
- conversion after 2 hrs. ([3]; inhibitor 0.75 M): 17.5%
- activity at 100000 µM ([3]; read-out: Vo Arginase (%)): 85.3%
- activity at 200000 µM ([3]; read-out: Vo Arginase (%)): 79.9%
- activity at 400000 µM ([3]; read-out: Vo Arginase (%)): 57%
- activity at 500000 µM ([3]; read-out: Vo Arginase (%)): 49.5%
- activity at 750000 µM ([3]; read-out: Vo Arginase (%)): 43.5%
